Common to all, as to conditions: Compound Concentration 10.0 uM, Hit No
Experiment [1] addresses Uracil-DNA glycosylase (Homo sapiens) (UniProt P13051).
Description: Inhibition of UNG by quantifying inhibition of UNG-mediated cleavage and dissociation of quenched duplex DNA oligonucleotides, measured as fluorescence at 594 nm. To generate a functional strand incision and increase turn-over this assay is coupled to APE1.
Experiment [2] concerns the target T1, Endonuclease III-like protein 1 (Homo sapiens) (UniProt P78549).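 Further: enzyme assay tracking NTHL1 cutting and release of a quenched double-stranded DNA oligo substrate, read as fluorescence at 594 nm.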
T1 sequence (whole entry): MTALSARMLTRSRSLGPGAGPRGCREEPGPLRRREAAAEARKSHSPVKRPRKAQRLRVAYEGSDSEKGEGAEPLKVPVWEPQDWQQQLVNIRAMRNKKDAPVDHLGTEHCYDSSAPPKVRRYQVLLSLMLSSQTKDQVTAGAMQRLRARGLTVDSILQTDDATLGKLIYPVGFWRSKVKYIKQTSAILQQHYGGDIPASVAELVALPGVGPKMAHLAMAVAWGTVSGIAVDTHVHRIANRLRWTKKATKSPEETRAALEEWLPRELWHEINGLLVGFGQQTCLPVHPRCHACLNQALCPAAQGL
Description: Inhibition of NTHL1 by quantifying inhibition of NTHL1-mediated cleavage and dissociation of quenched duplex DNA oligonucleotides, measured as fluorescence at 594 nm.

Experiment [3] concerns the target G/T mismatch-specific thymine DNA glycosylase (Homo sapiens) (UniProt Q13569).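 Further: human TDG cleavage of quenched duplex DNA oligonucleotides coupled to APE1, strand release read as fluorescence at 594 nm, inhibition of TDG activity.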
Description: Inhibition of TDG by quantifying inhibition of TDG-mediated cleavage and dissociation of quenched duplex DNA oligonucleotides, measured as fluorescence at 594 nm. To generate a functional strand incision and increase turn-over this assay is coupled to APE1.
Experiment [4] has as its target DNA-3-methyladenine glycosylase (Homo sapiens) (UniProt P29372).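 Further: enzyme assay where MPG cuts a quenched duplex DNA oligonucleotide probe, paired with APE1 for strand incision and turnover, read as fluorescence at 594 nm.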
Description: Inhibition of MPG by quantifying inhibition of MPG-mediated cleavage and dissociation of quenched duplex DNA oligonucleotides, measured as fluorescence at 594 nm. To generate a functional strand incision and increase turn-over this assay is coupled to APE1.
For experiment [5], the target named is T2, Adenine DNA glycosylase (Homo sapiens) (UniProt Q9UIF7).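 Further: human MUTYH activity read as 594 nm fluorescence from cleavage and release of a quenched DNA duplex, coupled with APE1 for strand incision, lower signal meaning inhibition.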
T2 sequence (whole entry): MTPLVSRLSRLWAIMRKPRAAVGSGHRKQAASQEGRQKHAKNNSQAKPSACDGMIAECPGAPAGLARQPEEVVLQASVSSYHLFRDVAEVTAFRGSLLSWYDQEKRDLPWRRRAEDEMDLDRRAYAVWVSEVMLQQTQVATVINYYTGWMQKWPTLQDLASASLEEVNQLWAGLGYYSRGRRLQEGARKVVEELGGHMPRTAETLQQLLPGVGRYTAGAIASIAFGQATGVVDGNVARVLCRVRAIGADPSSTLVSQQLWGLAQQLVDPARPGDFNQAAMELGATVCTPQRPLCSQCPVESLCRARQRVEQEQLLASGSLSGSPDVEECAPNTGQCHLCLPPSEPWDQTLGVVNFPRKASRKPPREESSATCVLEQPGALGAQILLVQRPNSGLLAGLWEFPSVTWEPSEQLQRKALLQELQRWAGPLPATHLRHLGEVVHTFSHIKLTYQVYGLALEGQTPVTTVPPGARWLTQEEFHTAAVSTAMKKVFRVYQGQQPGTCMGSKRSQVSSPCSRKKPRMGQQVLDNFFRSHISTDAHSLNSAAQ
Description: Inhibition of MUTYH by quantifying inhibition of MUTYH-mediated cleavage and dissociation of quenched duplex DNA oligonucleotides, measured as fluorescence at 594 nm. To generate a functional strand incision and increase turn-over this assay is coupled to APE1.

The target of experiment [6] is N-glycosylase/DNA lyase (Homo sapiens) (UniProt O15527).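 Further: OGG1 cleavage of a quenched duplex DNA oligonucleotide, coupled to APE1 for strand incision, read as fluorescence at 594 nm.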
Sequence of N-glycosylase/DNA lyase (Homo sapiens) (O15527 whole entry): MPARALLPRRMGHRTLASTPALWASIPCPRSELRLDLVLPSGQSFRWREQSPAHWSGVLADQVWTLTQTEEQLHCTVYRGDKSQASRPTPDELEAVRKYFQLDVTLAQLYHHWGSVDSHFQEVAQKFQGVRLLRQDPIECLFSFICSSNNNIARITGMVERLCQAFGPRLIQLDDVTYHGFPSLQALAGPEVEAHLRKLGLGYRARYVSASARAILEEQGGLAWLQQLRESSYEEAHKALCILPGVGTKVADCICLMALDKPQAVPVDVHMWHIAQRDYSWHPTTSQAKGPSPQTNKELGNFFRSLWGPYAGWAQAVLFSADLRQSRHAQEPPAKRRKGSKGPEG
Description: Inhibition of OGG1 by quantifying inhibition of OGG1-mediated cleavage and dissociation of quenched duplex DNA oligonucleotides, measured as fluorescence at 594 nm. To generate a functional strand incision and increase turn-over this assay is coupled to APE1.
Experiment [7] deals with Endonuclease 8-like 1 (Homo sapiens) (UniProt Q96FI4).
Sequence of Endonuclease 8-like 1 (Homo sapiens) (Q96FI4 whole entry, the tested form may be a part): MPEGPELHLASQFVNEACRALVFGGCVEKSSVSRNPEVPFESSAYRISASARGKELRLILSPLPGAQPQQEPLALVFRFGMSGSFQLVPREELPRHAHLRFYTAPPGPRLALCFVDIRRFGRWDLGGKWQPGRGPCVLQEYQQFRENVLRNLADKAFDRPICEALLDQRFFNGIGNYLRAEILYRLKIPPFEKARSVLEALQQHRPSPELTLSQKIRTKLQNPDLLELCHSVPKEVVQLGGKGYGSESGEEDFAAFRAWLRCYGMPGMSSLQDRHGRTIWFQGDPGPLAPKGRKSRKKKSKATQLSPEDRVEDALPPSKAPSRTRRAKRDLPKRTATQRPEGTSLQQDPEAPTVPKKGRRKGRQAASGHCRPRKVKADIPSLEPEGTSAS
Description: Inhibition of NEIL1 by quantifying inhibition of NEIL1-mediated cleavage and dissociation of quenched duplex DNA oligonucleotides, measured as fluorescence at 594 nm.
Experiment [8] has as its target Methyl-CpG-binding domain protein 4 (Homo sapiens) (UniProt O95243).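 Further: MBD4 activity read as fluorescence at 594 nm from cleavage and release of a quenched duplex DNA oligonucleotide, with APE1 coupled to incise the strand and raise turnover.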
Description: Inhibition of MBD4 by quantifying inhibition of MBD4-mediated cleavage and dissociation of quenched duplex DNA oligonucleotides, measured as fluorescence at 594 nm. To generate a functional strand incision and increase turn-over this assay is coupled to APE1.
Experiment [9] addresses T3, Endonuclease 8-like 2 (Homo sapiens) (UniProt Q969S2).
T3 sequence (whole entry): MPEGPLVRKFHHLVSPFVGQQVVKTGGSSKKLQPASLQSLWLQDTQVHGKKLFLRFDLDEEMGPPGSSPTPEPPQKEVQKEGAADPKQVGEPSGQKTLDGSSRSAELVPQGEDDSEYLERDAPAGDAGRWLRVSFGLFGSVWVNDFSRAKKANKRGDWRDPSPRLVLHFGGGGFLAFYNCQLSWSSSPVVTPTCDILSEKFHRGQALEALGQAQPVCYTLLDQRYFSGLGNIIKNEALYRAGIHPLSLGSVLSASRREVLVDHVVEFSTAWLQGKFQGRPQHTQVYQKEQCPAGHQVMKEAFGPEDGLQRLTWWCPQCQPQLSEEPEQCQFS
Description: Inhibition of NEIL2 by quantifying inhibition of NEIL2-mediated cleavage and dissociation of quenched duplex DNA oligonucleotides, measured as fluorescence at 594 nm.

Inhibition data for 18 compounds are collected here from ChEMBL document CHEMBL5665443, “Enzyme Inhibitor Single Concentration assay results for EUbOPEN Chemogenomics Library” (2024).

The structures appear in SMILES notation. *1 amine or outer side, *2 acyl side, *3 side chain or, on linkers, in order; H or OH if unused. Where a SMILES comes first, the peptide text is derived from it. Bridges are numbered along the chain shown (N, C = ends). X1 = O=C(CCC[*:2])[*:1]

The term inhibition denotes the drop in the measured response relative to a control, in per cent.

Sequence of G/T mismatch-specific thymine DNA glycosylase (Homo sapiens) (Q13569 whole entry): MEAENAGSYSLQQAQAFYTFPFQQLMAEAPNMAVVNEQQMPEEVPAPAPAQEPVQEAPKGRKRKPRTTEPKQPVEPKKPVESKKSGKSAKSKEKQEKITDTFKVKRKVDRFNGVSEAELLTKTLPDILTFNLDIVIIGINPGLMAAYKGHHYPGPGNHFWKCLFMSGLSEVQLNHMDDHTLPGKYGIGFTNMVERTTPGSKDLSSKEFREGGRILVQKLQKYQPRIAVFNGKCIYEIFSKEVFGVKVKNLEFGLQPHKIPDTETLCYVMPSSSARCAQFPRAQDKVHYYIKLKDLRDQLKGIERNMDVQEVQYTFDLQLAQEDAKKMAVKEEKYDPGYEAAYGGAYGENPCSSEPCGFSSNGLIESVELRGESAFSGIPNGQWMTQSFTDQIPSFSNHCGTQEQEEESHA
Sequence of Uracil-DNA glycosylase (Homo sapiens) (P13051 whole entry): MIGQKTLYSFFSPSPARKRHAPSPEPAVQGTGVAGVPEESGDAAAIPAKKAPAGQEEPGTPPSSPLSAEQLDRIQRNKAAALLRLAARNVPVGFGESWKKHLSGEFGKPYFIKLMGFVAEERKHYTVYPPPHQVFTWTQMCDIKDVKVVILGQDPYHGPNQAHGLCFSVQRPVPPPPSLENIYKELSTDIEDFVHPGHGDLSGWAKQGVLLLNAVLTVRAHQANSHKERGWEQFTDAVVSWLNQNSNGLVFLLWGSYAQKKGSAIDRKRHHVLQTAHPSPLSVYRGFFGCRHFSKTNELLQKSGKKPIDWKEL
Sequence of DNA-3-methyladenine glycosylase (Homo sapiens) (P29372 whole entry): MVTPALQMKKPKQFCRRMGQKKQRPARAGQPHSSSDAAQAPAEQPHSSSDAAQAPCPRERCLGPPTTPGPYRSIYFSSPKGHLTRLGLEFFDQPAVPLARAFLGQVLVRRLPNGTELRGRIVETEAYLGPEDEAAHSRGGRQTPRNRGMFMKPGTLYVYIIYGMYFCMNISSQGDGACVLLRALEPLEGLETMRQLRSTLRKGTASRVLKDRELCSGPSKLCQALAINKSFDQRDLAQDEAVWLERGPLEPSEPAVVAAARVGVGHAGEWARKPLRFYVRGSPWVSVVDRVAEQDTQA
Sequence of Methyl-CpG-binding domain protein 4 (Homo sapiens) (O95243 whole entry, the tested form may be a part): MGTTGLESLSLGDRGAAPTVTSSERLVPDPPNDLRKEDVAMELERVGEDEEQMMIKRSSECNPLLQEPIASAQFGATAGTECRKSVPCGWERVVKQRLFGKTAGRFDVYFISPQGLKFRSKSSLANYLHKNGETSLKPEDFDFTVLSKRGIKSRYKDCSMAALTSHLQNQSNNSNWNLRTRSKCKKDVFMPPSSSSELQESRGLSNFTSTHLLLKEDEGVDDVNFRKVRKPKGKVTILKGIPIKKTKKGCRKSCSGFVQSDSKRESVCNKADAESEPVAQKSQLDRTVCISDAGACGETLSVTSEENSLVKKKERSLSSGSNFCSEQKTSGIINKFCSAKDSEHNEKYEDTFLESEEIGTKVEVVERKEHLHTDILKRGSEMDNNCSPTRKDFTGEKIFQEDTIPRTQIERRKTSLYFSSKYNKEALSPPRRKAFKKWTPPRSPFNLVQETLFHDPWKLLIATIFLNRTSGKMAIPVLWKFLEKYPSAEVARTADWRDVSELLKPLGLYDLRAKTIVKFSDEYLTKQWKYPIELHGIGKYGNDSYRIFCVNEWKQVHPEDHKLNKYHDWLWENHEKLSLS

`CN1CCN2c3ccccc3Cc3ccccc3C2C1` (stereo unspecified): the inhibition in experiment [1] was -6.73%; in [2], -6.86%; in experiment [3] it was 1.8%; in experiment [4], 9.97%; in experiment [5], 1.87%; in experiment [6] it was -6.17%. Also, the inhibition is -1.32% in [7] and 11.7% in experiment [8].

Regarding `CCCCC1=NC2(CCCC2)C(=O)N1Cc1ccc(-c2ccccc2-c2nnn[nH]2)cc1`, the inhibition is -1.01% in [2]; 11.8% in experiment [3]; 12.4% in [4]; 12.9% in experiment [5]; -0.701% in [6]; 0.241% in [7]. Besides, the inhibition was determined as 9.56% in experiment [8] and 5.76% in [9].

In the case of `O=C(O)CCC/C=C\C[C@H]1C(=O)C[C@@H](O)[C@@H]1/C=C/[C@@H](O)CCc1ccccc1`, the inhibition in experiment [1] was -6.21%; in experiment [2], 14.6%; in experiment [3] it was 20.6%; in [4], -3.36%; in [5], 15.1%; in experiment [6], -5.63%. The inhibition is -9.47% in experiment [7] and 13.3% in experiment [8].

Consider `COc1cc(C(C)C)c(Oc2cnc(NC(CO)CO)nc2N)cc1I`, for which the inhibition in [1] was -4.17%; in [2], 6.35%; in experiment [3] it was -1.74%; in experiment [4] it was -3.99%; in [5] it was 2%; in [6], -8.24%. For the same compound, the inhibition was -4.73% in experiment [7] and -6.99% in experiment [8].

Take `CCCN[C@H]1CCc2nc(N)sc2C1`: the inhibition was -5.95% in experiment [1]; 22% in [2]; 19.3% in experiment [3]; -0.406% in experiment [4]; 13.4% in [5]; -6.43% in [6]. For the same compound, the inhibition is -3.55% in experiment [7] and 9.06% in experiment [8].

For `CCCCCCCC/C=C\CCCCCCCC(=O)NCc1ccc(O)c(OC)c1`, the inhibition was -4.89% in experiment [1]; -7.69% in experiment [2]; 13.7% in [3]; -5.12% in experiment [4]; 5.55% in experiment [5]; -7.56% in experiment [6]. In experiment [8], the inhibition worked out at 18.2%.

Take `CC1(C)SSC(C)(C)[C@@H](NC(=O)[C@@H](N)Cc2ccc(O)cc2)C(=O)NCC(=O)N[C@@H](Cc2ccccc2)C(=O)N[C@H]1C(=O)O`: the inhibition is 17.3% in experiment [2]; 10.6% in experiment [3]; 7.58% in [4]; 1.3% in experiment [5]; -3.29% in [6]; 8.1% in [7]. The results for the inhibition in [8] and in experiment [9] were -7.23% and 9.5%, respectively.

Turning to `CCCCN(CCCC)C(=O)CN1C[C@@H](c2ccc3c(c2)OCO3)[C@H](C(=O)O)[C@H]1c1ccc(OC)cc1`, the inhibition was 4.86% in experiment [2]; 32.4% in experiment [3]; 19.8% in [4]; 19.5% in [5]; 2.58% in experiment [6]; -5.1% in [7]. For the same compound, the inhibition in [8] was 29.1%; in [9], -2.98%.

For `c1ccc(C2CN3CCC2CC3)cc1` (stereo unspecified), the inhibition was -9.01% in [1]; 26.2% in experiment [2]; 22.8% in [3]; 3.54% in [4]; 22.9% in experiment [5]; 0.158% in experiment [7]. Also, the inhibition in [8] is 22%; in experiment [9] it was -3.92%.

On to `CC[C@H](C)[C@@H]1NC(=O)[C@H](Cc2ccc(OC)cc2)NC(=O)CCCSC[C@@H](C(=O)N2CCC[C@H]2C(=O)N[C@@H](CC(C)C)C(=O)NCC(N)=O)NC(=O)[C@H](CC(N)=O)NC(=O)[C@H](CCC(N)=O)NC1=O` (Y(Me)IQNCPLG-NH2; linker N-5 via X1), for which the inhibition in [2] was 33.4%; in experiment [3] it was -1.9%; in experiment [4], -9.15%; in experiment [5], -1%; in [6], -9.58%; in experiment [7], -0.0556%. Besides, the inhibition was -5.48% in experiment [8] and -7.22% in experiment [9].

As to `CC(C)C[C@@H](NC(=O)[C@H](Cc1ccccc1)NC(=O)CNC(=O)[C@@H](C)NC(=O)[C@@H](N)Cc1ccc(O)cc1)C(=O)O`, the inhibition in [1] was -7.3%; in [2], 10.5%; in [3], 20.9%; in experiment [4], -5.23%; in experiment [5], 18.5%; in experiment [6], -5.5%. In addition, the inhibition in experiment [8] is 20%.

As to `FC(F)(F)c1cccc(-c2noc(-c3cc(-c4ccccc4)c(C(F)(F)F)s3)n2)c1`, the inhibition in experiment [2] was 4.86%; in experiment [3], 9.3%; in [4], -0.823%; in [5], 1.81%; in [6], -2.17%; in [8], 6.66%. Further, the inhibition in experiment [9] is -4.73%.

Take `CO[C@H]1CC[C@@H](C(=O)c2ccc3nc4c(cc3c2)CCCO4)CC1`: the inhibition was -6.5% in [2]; 4.03% in [3]; -2.23% in [4]; -9.06% in [5]; -3.26% in [6]; 1.35% in experiment [7]. Also, the inhibition in [8] is -6.79%; in experiment [9], 8.38%.

For the compound `C[N+]1(C)[C@@H]2C[C@@H](OC(=O)C(O)(c3cccs3)c3cccs3)C[C@H]1[C@@H]1O[C@@H]12`, the inhibition is 7.05% in experiment [2]; -0.0311% in [3]; -7.84% in [4]; 9.11% in experiment [5]; -4.25% in experiment [6]; 8.84% in experiment [7]. Moreover, the inhibition was -8.5% in [8] and 2.01% in [9].

Consider `C[C@H]1CN(C[C@H](Cc2ccccc2)C(=O)NCC(=O)O)CC[C@@]1(C)c1cccc(O)c1`, for which the inhibition was -7.63% in [1]; 34.4% in experiment [2]; 37.5% in experiment [3]; 22.9% in [4]; 40.2% in experiment [5]; -4.44% in experiment [7]. The figures for the inhibition in experiment [8] and in experiment [9] were 21.1% and -9.01%, respectively.

For the compound `Fc1cccc(/C=N/N=C/c2cccc(F)c2)c1`, the inhibition is -6.06% in [1]; 15.4% in experiment [2]; 5.75% in [3]; -2.88% in experiment [4]; 1.53% in experiment [5]; -5.18% in [7]. Further, the values for the inhibition in experiment [8] and in experiment [9] were 4.13% and -1.37%, respectively.

With `C[C@H](NC(=O)[C@H](Cc1ccccc1)NC(=O)[C@H](CCC(N)=O)NC(=O)CNC(=O)[C@@H]1CCCN1C(=O)[C@H](Cc1ccccc1)NC(=O)[C@@H](N)Cc1ccc(O)cc1)C(=O)N[C@@H](Cc1ccccc1)C(=O)N[C@@H](CO)C(=O)O`, the inhibition in experiment [1] is -4.67%; in experiment [2] it was 21.2%; in [3] it was 9.05%; in experiment [4], 6.08%; in experiment [5], 2.52%; in experiment [7] it was 13.2%. Besides, the inhibition in experiment [8] was 12.6%; in experiment [9] it was 2.96%.

Turning to `N=C(N)NCCC[C@H](NC(=O)COCC(c1ccccc1)c1ccccc1)C(=O)O`, the inhibition is 9.99% in experiment [2]; -4.14% in experiment [3]; 6.97% in [4]; 3.99% in experiment [5]; -5.82% in experiment [6]; 7.21% in experiment [7]. In addition, the results for the inhibition in [8] and in experiment [9] were -5.83% and -7.47%, respectively.
